Test results published in paper PMC12621043, “Un-LOK-ing a New Approach for Conformational Selective Targeting of STK10 (LOK)” (ACS Medicinal Chemistry Letters, 2025).

Experiments:
[1] = target: T1, CAMK1DA (Homo sapiens, UniProt Q8IU85); assay: DSF Tm panel; format: binding; details: 10 μM compound
T1 construct: purchased in-house DSF kinase panel (SGC-style construct names; the trailing letter is the construct ID)
Procedure: The synthesized urea-based derivatives were evaluated in a panel of kinases by differential scanning fluorescence (DSF) to investigate their selectivity profile. A positive ΔT m in the DSF assay indicates stabilization of the protein upon ligand binding in comparison to its apo state, with higher thermal shifts generally correlating with stronger binding. For this purpose, we used our internal kinase selectivity panel (∼90 kinases) along with staurosporine as a positive control. […] This was also reflected in the overall low selectivity score (S) throughout the series, which is determined by the ratio between the number of kinases that are stabilized above 5 °C and the total number of kinases tested (Figure ). Motivated by these findings, we further validated the entire series by orthogonal binding and activity assays to determine the in vitro and cellular potency and selectivity of the developed series in comparison to the selected reference compounds. […]
was performed as previously described.[1,2] Briefly, recombinant protein kinase domains at a concentration of 2 μM were mixed with 10 μM compound in a buffer containing 20 mM HEPES, […]
probe (1 µl per mL). Subsequently, temperature-dependent protein unfolding profiles were […]
emission filters were set to 465 nm and 590 nm, respectively. The temperature was raised with a step rate of 3 °C per minute. […]
inflection point of the transition curve. […]
previously.[3] In brief, STK10, STK3, STK4 and SLK were obtained as plasmids cloned in […]
Plasmids were transfected into
KD concentration taken from TracerDB (tracerdb.org)[4] were pipetted into white 384-well

[2] = target: T2, STK4 (STK4A) (Homo sapiens, UniProt Q13043); assay: DSF Tm panel; format: binding; details: 10 μM compound
T2 construct: purchased in-house DSF kinase panel (SGC-style construct names; the trailing letter is the construct ID)
T2 sequence (Q13043 1-311): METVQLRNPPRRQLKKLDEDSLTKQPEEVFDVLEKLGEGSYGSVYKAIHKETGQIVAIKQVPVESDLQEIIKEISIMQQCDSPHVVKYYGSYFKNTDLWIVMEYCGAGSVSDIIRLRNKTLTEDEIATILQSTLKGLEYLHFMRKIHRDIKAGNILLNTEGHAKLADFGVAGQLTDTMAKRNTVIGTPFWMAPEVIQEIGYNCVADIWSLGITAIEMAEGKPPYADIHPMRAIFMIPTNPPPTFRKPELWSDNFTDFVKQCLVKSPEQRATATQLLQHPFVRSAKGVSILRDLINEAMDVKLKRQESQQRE

[3] = target: T3, MAPK15A (MAPK15HSD) (Homo sapiens, UniProt Q8TD08); assay: DSF Tm panel; format: binding; details: 10 μM compound
T3 sequence (Q8TD08 13-304 limits assumed): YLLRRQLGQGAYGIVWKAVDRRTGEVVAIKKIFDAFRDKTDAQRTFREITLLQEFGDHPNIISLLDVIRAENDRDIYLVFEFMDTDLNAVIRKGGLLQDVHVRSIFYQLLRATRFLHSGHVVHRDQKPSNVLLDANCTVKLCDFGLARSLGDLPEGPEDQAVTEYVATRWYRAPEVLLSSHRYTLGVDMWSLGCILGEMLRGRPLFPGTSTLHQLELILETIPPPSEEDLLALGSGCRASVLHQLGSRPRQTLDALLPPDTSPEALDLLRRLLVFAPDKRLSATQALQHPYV

[4] = target: T4, CDK2A (Homo sapiens, UniProt P24941); assay: DSF Tm panel; format: binding; details: 10 μM compound
T4 construct: purchased in-house DSF kinase panel (SGC-style construct names; the trailing letter is the construct ID)

[5] = target: T5, CAMKK2B (Homo sapiens, UniProt Q96RR4); assay: DSF Tm panel; format: binding; details: 10 μM compound
T5 construct: purchased in-house DSF kinase panel (SGC-style construct names; the trailing letter is the construct ID)
T5 sequence (Q96RR4 161-449): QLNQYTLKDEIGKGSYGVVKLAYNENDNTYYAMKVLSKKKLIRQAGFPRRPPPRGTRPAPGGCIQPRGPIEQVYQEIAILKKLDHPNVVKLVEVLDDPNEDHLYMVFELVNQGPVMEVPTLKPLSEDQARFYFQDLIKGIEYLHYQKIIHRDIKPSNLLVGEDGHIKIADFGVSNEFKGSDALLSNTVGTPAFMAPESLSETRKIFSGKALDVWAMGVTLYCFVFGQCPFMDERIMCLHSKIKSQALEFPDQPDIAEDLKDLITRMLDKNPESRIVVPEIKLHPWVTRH

[6] = target: T6, STK39A (Homo sapiens, UniProt Q9UEW8); assay: DSF Tm panel; format: binding; details: 10 μM compound
T6 construct: purchased in-house DSF kinase panel (SGC-style construct names; the trailing letter is the construct ID)

[7] = target: T7, PCTK1A (Homo sapiens, UniProt Q00536); assay: DSF Tm panel; format: binding; details: 10 μM compound
T7 construct: purchased in-house DSF kinase panel (SGC-style construct names; the trailing letter is the construct ID)
T7 sequence (Q00536 163-478): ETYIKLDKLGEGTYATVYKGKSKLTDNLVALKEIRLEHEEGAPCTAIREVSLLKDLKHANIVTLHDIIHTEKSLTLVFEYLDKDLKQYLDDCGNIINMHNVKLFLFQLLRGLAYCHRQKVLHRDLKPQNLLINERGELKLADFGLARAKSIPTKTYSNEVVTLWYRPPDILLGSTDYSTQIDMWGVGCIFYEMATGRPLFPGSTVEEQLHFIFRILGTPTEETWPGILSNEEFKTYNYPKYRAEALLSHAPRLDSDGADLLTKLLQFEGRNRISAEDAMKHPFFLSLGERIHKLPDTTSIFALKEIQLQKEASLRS

[8] = target: T8, MST3A (Homo sapiens, UniProt Q9Y6E0); assay: DSF Tm panel; format: binding; details: 10 μM compound
T8 construct: purchased in-house DSF kinase panel (SGC-style construct names; the trailing letter is the construct ID)
T8 sequence (Q9Y6E0 whole entry): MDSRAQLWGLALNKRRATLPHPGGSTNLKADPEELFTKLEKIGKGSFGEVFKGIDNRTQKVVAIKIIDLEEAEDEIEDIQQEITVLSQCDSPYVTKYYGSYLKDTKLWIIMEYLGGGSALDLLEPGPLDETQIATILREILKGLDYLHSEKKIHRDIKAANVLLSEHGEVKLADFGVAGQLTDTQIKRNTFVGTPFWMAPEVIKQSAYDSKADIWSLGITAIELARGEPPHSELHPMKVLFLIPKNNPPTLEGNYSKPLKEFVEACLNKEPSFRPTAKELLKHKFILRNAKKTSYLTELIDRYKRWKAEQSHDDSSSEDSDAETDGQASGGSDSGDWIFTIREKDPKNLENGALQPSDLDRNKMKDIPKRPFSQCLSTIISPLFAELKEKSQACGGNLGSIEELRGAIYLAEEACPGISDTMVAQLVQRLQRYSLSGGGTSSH

[9] = target: T9, CAMK2BA (Homo sapiens, UniProt Q13554); assay: DSF Tm panel; format: binding; details: 10 μM compound
T9 construct: purchased in-house DSF kinase panel (SGC-style construct names; the trailing letter is the construct ID)
T9 sequence (Q13554 11-303): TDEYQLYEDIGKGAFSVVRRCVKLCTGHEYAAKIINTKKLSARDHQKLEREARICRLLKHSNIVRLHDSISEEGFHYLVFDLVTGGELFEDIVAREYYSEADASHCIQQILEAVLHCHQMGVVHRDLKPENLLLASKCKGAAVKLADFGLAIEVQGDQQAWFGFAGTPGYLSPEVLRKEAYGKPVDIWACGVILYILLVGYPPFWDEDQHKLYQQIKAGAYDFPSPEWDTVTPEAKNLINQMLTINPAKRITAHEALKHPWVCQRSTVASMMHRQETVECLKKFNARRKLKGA

[10] = target: T10, EPHA2 (EPHA2A) (Homo sapiens, UniProt P29317); assay: DSF Tm panel; format: binding; details: 10 μM compound
T10 construct: purchased in-house DSF kinase panel (SGC-style construct names; the trailing letter is the construct ID)
T10 sequence (P29317 596-900): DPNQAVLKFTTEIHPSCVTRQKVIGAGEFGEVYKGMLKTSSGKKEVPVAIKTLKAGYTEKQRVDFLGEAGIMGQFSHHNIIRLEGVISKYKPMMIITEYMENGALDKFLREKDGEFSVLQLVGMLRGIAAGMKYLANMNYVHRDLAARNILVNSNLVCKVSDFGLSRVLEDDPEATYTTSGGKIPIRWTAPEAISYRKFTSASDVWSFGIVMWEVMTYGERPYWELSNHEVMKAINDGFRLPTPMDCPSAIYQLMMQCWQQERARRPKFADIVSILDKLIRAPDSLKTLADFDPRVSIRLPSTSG

[11] = target: T11, GSG2A (Homo sapiens, UniProt Q8TF76); assay: DSF Tm panel; format: binding; details: 10 μM compound
T11 construct: purchased in-house DSF kinase panel (SGC-style construct names; the trailing letter is the construct ID)
T11 sequence (Q8TF76 465-798): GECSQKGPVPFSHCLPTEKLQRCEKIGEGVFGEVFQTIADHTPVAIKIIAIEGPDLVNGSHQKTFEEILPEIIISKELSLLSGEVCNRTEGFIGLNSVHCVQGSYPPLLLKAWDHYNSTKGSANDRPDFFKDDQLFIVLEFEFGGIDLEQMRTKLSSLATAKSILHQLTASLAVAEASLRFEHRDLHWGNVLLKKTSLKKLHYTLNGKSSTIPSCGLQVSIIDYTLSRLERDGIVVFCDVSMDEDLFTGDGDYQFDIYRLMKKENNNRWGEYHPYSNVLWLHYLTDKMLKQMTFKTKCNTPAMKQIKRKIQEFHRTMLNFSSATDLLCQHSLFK

[12] = target: T12, SRPK1A (Homo sapiens, UniProt Q96SB4); assay: DSF Tm panel; format: binding; details: 10 μM compound
T12 construct: purchased in-house DSF kinase panel (SGC-style construct names; the trailing letter is the construct ID)
T12 sequence (Q96SB4 80-653): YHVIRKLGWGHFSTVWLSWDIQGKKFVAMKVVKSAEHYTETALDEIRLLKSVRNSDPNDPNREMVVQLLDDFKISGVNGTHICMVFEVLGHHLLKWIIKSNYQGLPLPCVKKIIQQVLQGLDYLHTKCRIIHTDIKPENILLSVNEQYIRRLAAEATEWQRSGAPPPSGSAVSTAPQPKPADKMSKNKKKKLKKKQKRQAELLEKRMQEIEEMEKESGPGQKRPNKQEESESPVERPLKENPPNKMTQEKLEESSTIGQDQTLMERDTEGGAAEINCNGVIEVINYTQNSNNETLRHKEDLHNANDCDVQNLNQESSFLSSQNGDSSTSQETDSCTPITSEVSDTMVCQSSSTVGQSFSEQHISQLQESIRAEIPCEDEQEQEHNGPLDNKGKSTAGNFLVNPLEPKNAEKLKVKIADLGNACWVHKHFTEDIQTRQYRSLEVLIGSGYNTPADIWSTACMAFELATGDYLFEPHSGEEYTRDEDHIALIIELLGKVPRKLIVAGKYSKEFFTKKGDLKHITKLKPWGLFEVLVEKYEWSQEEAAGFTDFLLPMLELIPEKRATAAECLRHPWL

[13] = system: CDC42BPAA; assay: DSF Tm panel; format: binding; details: 10 μM compound
[14] = target: T13, STK10 (Homo sapiens, UniProt O94804); assay: PhosphoSens in vitro activity assay; format: biochemical; details: ATP 160 μM
T13 construct: purchased in-house DSF kinase panel (SGC-style construct names; the trailing letter is the construct ID)
T13 sequence (O94804 18-317 limits assumed): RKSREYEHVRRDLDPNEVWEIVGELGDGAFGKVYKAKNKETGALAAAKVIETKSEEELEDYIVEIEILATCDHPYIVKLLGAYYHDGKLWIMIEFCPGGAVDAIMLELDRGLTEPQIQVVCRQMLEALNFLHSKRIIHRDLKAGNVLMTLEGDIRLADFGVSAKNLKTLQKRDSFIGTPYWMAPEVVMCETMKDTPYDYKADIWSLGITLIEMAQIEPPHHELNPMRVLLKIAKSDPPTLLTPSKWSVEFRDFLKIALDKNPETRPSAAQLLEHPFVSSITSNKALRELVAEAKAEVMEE

[15] = target: SLK (Homo sapiens, UniProt Q9H2G2); assay: PhosphoSens in vitro activity assay; format: biochemical; details: ATP 150 μM

T1 sequence (Q8IU85 whole entry): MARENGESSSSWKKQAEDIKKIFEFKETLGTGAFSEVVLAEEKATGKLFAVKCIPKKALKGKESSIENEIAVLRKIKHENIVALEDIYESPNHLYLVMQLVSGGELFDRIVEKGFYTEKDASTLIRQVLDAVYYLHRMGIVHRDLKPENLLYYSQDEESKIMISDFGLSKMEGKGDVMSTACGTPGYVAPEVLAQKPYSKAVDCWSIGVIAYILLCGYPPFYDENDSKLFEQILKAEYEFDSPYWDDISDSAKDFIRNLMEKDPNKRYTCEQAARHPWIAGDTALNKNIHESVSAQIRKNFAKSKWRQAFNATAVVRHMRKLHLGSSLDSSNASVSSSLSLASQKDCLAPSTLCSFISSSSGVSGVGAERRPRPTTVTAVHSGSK

Row | Structure (SMILES) | ΔTm at 10 µM [1] | ΔTm at 10 µM [2] | ΔTm at 10 µM [4] | ΔTm at 10 µM [5] | ΔTm at 10 µM [6] | ΔTm at 10 µM [7] | ΔTm at 10 µM [8] | ΔTm at 10 µM [9] | ΔTm at 10 µM [10] | ΔTm at 10 µM [11] | ΔTm at 10 µM [12] | IC50 [14] | IC50 [15] | ΔTm at 10 µM [3] | ΔTm CDC42BPAA [13]
1 | Cc1ccc(F)cc1CNC(=O)Nc1ccc2cc1OCCOCCNc1ccn3ncc-2c3n1 [compound 26] | 1 °C | 3.1 °C | 2.3 °C | 0.9 °C | 0.9 °C | 1 °C | -2 °C | 0 °C | 0.3 °C | 0.6 °C | 0 °C | 3.53 ± 0.57 µM | 9.8 ± 2.41 µM | 2.4 °C | 0,2 °C
2 | COc1ccccc1CNC(=O)Nc1ccc2cc1OCCOCCNc1ccn3ncc-2c3n1 [compound 29] | 0.4 °C | 2.6 °C | 1.7 °C | 1.5 °C | 0.8 °C | 1 °C | -7.7 °C | -0.2 °C | 0.4 °C | 0.6 °C | 0.2 °C | 5.2 ± 0.81 µM | 17.1 ± 2.86 µM | 3.3 °C | 0,3 °C
3 | O=C(NCc1ccccc1)Nc1ccc2cc1OCCOCCNc1ccn3ncc-2c3n1 [compound 16] | 0 °C | 4.9 °C | 4.1 °C | 3.8 °C | 3 °C | 1.8 °C | 1.5 °C | 1.3 °C | 0.8 °C | 0.5 °C | 0 °C | 0.88 ± 0.11 µM | 9.36 ± 1.77 µM | 4.9 °C | -0,2 °C
4 | C[C@H](NC(=O)Nc1ccc2cc1OCCOCCNc1ccn3ncc-2c3n1)c1ccccc1 [compound 34] | 0.8 °C | 2.7 °C | 1 °C | 0.6 °C | 1 °C | 0.5 °C | -7.8 °C | -0.3 °C | 0.3 °C | 0.1 °C | -0.1 °C | 10.2 µM | > 20 µM | 2.1 °C | 0,1 °C

Now from value to compound, other results behind:

Row | ΔTm at 10 µM [1] | ΔTm at 10 µM [2] | ΔTm at 10 µM [4] | ΔTm at 10 µM [5] | ΔTm at 10 µM [6] | ΔTm at 10 µM [7] | ΔTm at 10 µM [8] | ΔTm at 10 µM [9] | ΔTm at 10 µM [10] | ΔTm at 10 µM [11] | ΔTm at 10 µM [12] | IC50 [14] | IC50 [15] | Structure (SMILES) | ΔTm at 10 µM [3] | ΔTm CDC42BPAA [13]
5 | 0.4 °C | 4.5 °C | 4.3 °C | 3.1 °C | 4 °C | 1.3 °C | 0.7 °C | 0.8 °C | 0.6 °C | 0 °C | -0.3 °C | 2.57 ± 0.11 µM | 5.93 ± 0.76 µM | O=C(NCc1cccc(Cl)c1)Nc1ccc2cc1OCCOCCNc1ccn3ncc-2c3n1 [compound 18] | 2.3 °C | 0,0 °C
6 | 0.4 °C | 3 °C | 2.5 °C | 2 °C | 1.2 °C | 1.3 °C | -5.1 °C | -0.2 °C | 0.4 °C | 0.7 °C | 0.1 °C | 6.29 ± 1.49 µM | > 20 µM | COc1cccc(CNC(=O)Nc2ccc3cc2OCCOCCNc2ccn4ncc-3c4n2)c1 [compound 30] | 2.3 °C | 0,2 °C
